Earlier results as cited in patent US6946461B2, “Imidazolophthalazine derivatives as ligands for GABAA receptors” (Merck Sharp & Dohme Ltd., priority 2000, dated 2005).

How the values were obtained:
spatial learning = conditions: reported by McNamara and Skelton
[1] = in vivo

In the case of `COC(=O)c1cc2c(cn1)[nH]c1ccccc12` [β-CCM], the “spatial learning in the Morris watermaze” value (spatial learning) is given as “enhanced spatial learning” and the proconvulsant effect [1] is given as “proconvulsant”.
